For 23 compounds, activity coefficient results are on record in the NIST ThermoML archive (doi:10.1016/j.jct.2004.11.005).

± gives the expanded uncertainty stated by the source.

The data set is described as follows: activity coefficient (dimensionless); of the first substance listed, at infinite dilution; xn = mol fraction of the nth substance listed. The settings on record: Liquid, x1 = 0.

`CC(C)C` [2-methylpropane] + CCCCCO: the activity coefficient runs as follows: (249.97 K) 3.65 ± 0.11; (270.01 K) 3.59 ± 0.11; (290 K) 3.56 ± 0.11; (310 K) 3.51 ± 0.11; (330 K) 3.4 ± 0.1.
Take `C=CC` [propene] + CCCCCO: the activity coefficient reads like this: (249.96 K) 2.59 ± 0.08; (269.99 K) 2.59 ± 0.08; (290 K) 2.6 ± 0.08; (310 K) 2.59 ± 0.08; (330 K) 2.51 ± 0.08.
As for `C=C(C)C` [2-methylpropene] + CCCC(C)O, the activity coefficient stood at 3.1 ± 0.09 (249.94 K); 2.99 ± 0.09 (269.98 K); 2.82 ± 0.08 (290 K); 2.63 ± 0.08 (310 K); 2.45 ± 0.07 (330 K).
As for `CCCC` [butane] + CCC(O)CC, the activity coefficient was 3.48 ± 0.1 (259.98 K); 3.4 ± 0.1 (270.02 K); 3.36 ± 0.1 (280 K); 3.26 ± 0.1 (290 K); 3.15 ± 0.09 (300 K); 3.04 ± 0.09 (310.01 K). Moreover, the activity coefficient reads like this: (320 K) 2.92 ± 0.09; (330.01 K) 2.79 ± 0.08.
Regarding `C=CCC` [1-butene] + CCC(O)CC, the activity coefficient is, setting by setting: (259.96 K) 3.27 ± 0.1; (270.02 K) 3.16 ± 0.09; (280 K) 3.05 ± 0.09; (290 K) 2.96 ± 0.09; (300 K) 2.86 ± 0.09; (310.01 K) 2.72 ± 0.08. Further, the activity coefficient reads like this: (320 K) 2.61 ± 0.08; (330 K) 2.49 ± 0.07.
`CC(C)C` [2-methylpropane] + CCCC(C)O: the activity coefficient was 3.66 ± 0.11 (250.01 K); 3.61 ± 0.11 (269.96 K); 3.49 ± 0.1 (290 K); 3.3 ± 0.1 (310 K); 3.1 ± 0.09 (330 K).
As to `CCCC` [butane] + CCCC(C)O, the activity coefficient amounted to 3.4 ± 0.1 (249.93 K); 3.38 ± 0.1 (269.96 K); 3.24 ± 0.1 (290 K); 3.11 ± 0.09 (310 K); 2.94 ± 0.09 (330 K).
Take `CCCC` [butane] + CCCCCO: the activity coefficient reads like this: (249.97 K) 3.43 ± 0.1; (270.01 K) 3.33 ± 0.1; (290 K) 3.31 ± 0.1; (310 K) 3.27 ± 0.1; (330 K) 3.19 ± 0.1.
For the compound `C=CC=C` [1,3-butadiene] + CCC(O)CC, the activity coefficient (259.98 K) is 3.18 ± 0.1; the activity coefficient (270.02 K) was determined as 3.03 ± 0.09; the activity coefficient (280 K) came out at 2.92 ± 0.09; the activity coefficient (290 K) was 2.75 ± 0.08; the activity coefficient (300 K) worked out at 2.63 ± 0.08.
As to `C=C(C)C` [2-methylpropene] + CCC(O)CC, the activity coefficient (259.96 K) worked out at 3.25 ± 0.1; the activity coefficient (270.02 K) was 3.15 ± 0.09; the activity coefficient (280 K) was 3.04 ± 0.09; the activity coefficient (290 K) amounted to 2.93 ± 0.09; the activity coefficient (300 K) was determined as 2.82 ± 0.08; the activity coefficient (310.01 K) stood at 2.69 ± 0.08. Also, the activity coefficient came to 2.56 ± 0.08 (320 K) and 2.43 ± 0.07 (330.01 K).
For the compound `C/C=C/C` [(E)-2-butene] + CCC(O)CC, the activity coefficient runs as follows: (259.96 K) 3.12 ± 0.09; (270.02 K) 3.06 ± 0.09; (280 K) 2.96 ± 0.09; (290 K) 2.88 ± 0.09; (300 K) 2.77 ± 0.08; (310.01 K) 2.67 ± 0.08. Moreover, the activity coefficient is, setting by setting: (320 K) 2.54 ± 0.08; (330.01 K) 2.5 ± 0.08.
As for `C=C(C)C` [2-methylpropene] + CCCCCO, the activity coefficient is, setting by setting: (249.97 K) 2.86 ± 0.09; (270.01 K) 2.84 ± 0.09; (290 K) 2.82 ± 0.08; (310 K) 2.76 ± 0.08; (330 K) 2.63 ± 0.08.
Regarding `C/C=C/C` [(E)-2-butene] + CCCC(C)O, the activity coefficient by setting is: (249.94 K) 2.9 ± 0.09; (269.99 K) 2.91 ± 0.09; (290 K) 2.81 ± 0.08; (310 K) 2.65 ± 0.08; (330 K) 2.49 ± 0.07.
For the compound `C/C=C/C` [(E)-2-butene] + CCCCCO, the activity coefficient by setting is: (249.96 K) 2.8 ± 0.08; (269.99 K) 2.8 ± 0.08; (290 K) 2.76 ± 0.08; (310 K) 2.76 ± 0.08; (330 K) 2.69 ± 0.08.
As for `CCC` [propane] + CCC(O)CC, the activity coefficient reads like this: (259.96 K) 3.27 ± 0.1; (270.02 K) 3.21 ± 0.1; (280 K) 3.14 ± 0.09; (290 K) 3.09 ± 0.09; (300 K) 3.01 ± 0.09; (310.01 K) 2.9 ± 0.09. Further, the activity coefficient was 2.81 ± 0.08 (320 K) and 2.72 ± 0.08 (330 K).
As to `C=CCC` [1-butene] + CCCCCO, the activity coefficient (249.96 K) was determined as 2.88 ± 0.09; the activity coefficient (269.99 K) was determined as 2.87 ± 0.09; the activity coefficient (290 K) turned out to be 2.82 ± 0.08; the activity coefficient (310 K) is 2.78 ± 0.08; the activity coefficient (330 K) came out at 2.7 ± 0.08.
Regarding `C=CCC` [1-butene] + CCCC(C)O, the activity coefficient runs as follows: (249.94 K) 3.04 ± 0.09; (269.99 K) 3.03 ± 0.09; (290 K) 2.86 ± 0.09; (310 K) 2.69 ± 0.08; (330 K) 2.5 ± 0.08.
As to `C=CC` [propene] + CCC(O)CC, the activity coefficient is 2.97 ± 0.09 (259.94 K); 2.87 ± 0.09 (270.02 K); 2.82 ± 0.08 (280 K); 2.74 ± 0.08 (290 K); 2.63 ± 0.08 (300 K); 2.53 ± 0.08 (310.01 K). The activity coefficient runs as follows: (320 K) 2.42 ± 0.07; (330.01 K) 2.32 ± 0.07.
As for `CCC` [propane] + CCCCCO, the activity coefficient by setting is: (249.96 K) 3.08 ± 0.09; (269.99 K) 3.07 ± 0.09; (290 K) 3.08 ± 0.09; (310 K) 3.05 ± 0.09; (330 K) 3 ± 0.09.
On to `CC(C)C` [2-methylpropane] + CCC(O)CC, for which the activity coefficient was 3.66 ± 0.11 (259.96 K); 3.62 ± 0.11 (270.02 K); 3.53 ± 0.11 (280 K); 3.45 ± 0.1 (290 K); 3.35 ± 0.1 (300 K); 3.22 ± 0.1 (310.01 K). For the same compound, the activity coefficient (320 K) turned out to be 3.09 ± 0.09 and the activity coefficient (330.01 K) came to 2.98 ± 0.09.
With `C=CC=C` [1,3-butadiene] + CCCCCO, the activity coefficient (249.97 K) was determined as 2.5 ± 0.08; the activity coefficient (270.01 K) was 2.51 ± 0.08; the activity coefficient (290 K) was 2.5 ± 0.08; the activity coefficient (310 K) came to 2.46 ± 0.07; the activity coefficient (330 K) came to 2.33 ± 0.07.
`C=CC=C` [1,3-butadiene] + CCCC(C)O: the activity coefficient reads like this: (249.94 K) 3.01 ± 0.09; (269.98 K) 2.89 ± 0.09; (290 K) 2.68 ± 0.08; (310 K) 2.47 ± 0.07; (330 K) 2.27 ± 0.07.
Regarding `C=CC` [propene] + CCCC(C)O, the activity coefficient (249.93 K) amounted to 2.79 ± 0.08; the activity coefficient (269.99 K) amounted to 2.77 ± 0.08; the activity coefficient (290 K) was 2.66 ± 0.08; the activity coefficient (310 K) stood at 2.53 ± 0.08; the activity coefficient (330 K) was 2.37 ± 0.07.
